Assay results published in patent US8420600B2 (Vallinex, Inc., priority 2002, dated 2013).
“And” between values parts separate entries of the source, which are not always exact repeats. Identical values can stand only once.

How the values were obtained:
[1] = tested on: radiation induced hyperalgesia; settings: systemically delivered, cited from earlier work
[2] = tested on: subjects with osteoarthritis of the knee; assay: Osteoarthritis of the Knee Safety Study: VAS pain at the target knee; type: in vivo, human
Procedure: (§1) The study was designed to include 16 evaluation subjects. […] Sixteen subjects completed the study.
(§2) Patients were treated randomly and in double-blind fashion in four treatment cohorts, with each cohort having a progressively longer interval between the intra-articular administration of study medication and subsequent total knee replacement (2, 4, 7, and 14 days). […] Gross and microscopic pathology analysis was completed for each treatment cohort before the next treatment cohort was treated.
(§3) Each subject had 3 study visits: a Screening Day (Day −7 to −1), the Treatment Day (Day 0), and a Post-Treatment Day (scheduled for Day +2, +4, +7, or +14). On the Treatment Day the subject was randomized, pre-treatment evaluation was performed. The patients were brought into the procedure room, and a VAS pain score was taken (0 mm—no pain, 100 mm—extreme pain). Once the patient had marked his or her pain on the card, he/she was prepped for knee cannulation. Once the cannula was placed, the patient received by intra-articular infiltration, 3 mg/kg (maximum dose of 200 mg) of 2% lignocaine into the knee scheduled to be replaced.
VAS pain scores as well as verbal reports were taken immediately following administration, as well as prior to knee replacement surgery. No subjects discontinued from the study due to adverse events. […]

[3] = tested on: subjects with osteoarthritis of the knee; assay: Osteoarthritis of the Knee Safety Study: safety and tolerability of intra-articular capsaicin; type: in vivo, human
Procedure: The primary objective of the study was to evaluate the safety and tolerability of intra-articular capsaicin, when co-administered with intra-articular local anesthetic, compared to placebo, in subjects with end-stage osteoarthritis of the knee, already scheduled to receive knee replacements.
as §1, §2, §3
VAS pain scores as well as verbal reports were taken immediately following administration, as well as prior to knee replacement surgery. No subjects discontinued from the study due to adverse events.
On the Post-Treatment Day, study evaluation was performed followed by the scheduled knee replacement, with intra-operative bone and soft tissue biopsies performed for subsequent examination. […] This therefore left the 3 placebo and 9 active patients from the 4 day, 7 day, and 14 day cohorts.

[4] = tested on: subjects undergoing transpositional osteotomy (bunionectomy); assay: Bunionectomy Efficacy Study: VAS pain score and rescue medication; type: in vivo, human; settings: for VAS pain score (Table 4), mean +/− SEM: 1000 μg into the wound prior to closure, n = 11
Procedure: The primary efficacy endpoint was the proportion of subjects in each treatment group requiring opioid analgesia in the first 24 hours post-operatively. The proportions were compared amongst treatment groups using the Cochran-Haenszel test. Secondary efficacy end points included: i) proportion of subjects in each treatment group requiring opioid analgesia in the first 36 hour period post-operatively (Similarly, the proportions were compared amongst treatment groups using the Cochran-Haenszel test); ii) proportion of subjects in each treatment group requiring opioid analgesia in the 10 day period post-operatively (Similarly, the proportions were compared amongst treatment groups using the Cochran-Haenszel test); iii) time to first usage of opioid analgesia in each treatment group (a survival analysis approach will be used: the product-limit (Kaplan-Meier) method will be applied to time to first usage of opioid analgesia. The median time to first usage of opioid analgesia will be estimated in both treatment groups. Pairwise comparisons will be performed to test for equality of the survival curves between the 2 treatment groups using both the log-rank and the Wilcoxon test); iv) total usage of analgesia in each treatment group (the total usage of analgesia will be compared by an analysis of variance with treatment and center as independent variables. A pairwise comparison will be performed between the treatment groups); and v) VAS assessment of pain at the site of operation in each treatment group (The VAS score at each time point will be compared by an analysis of variance with treatment and center as independent variables. A pairwise comparison will be performed between the treatment groups). […] The efficacy analysis was performed on the data obtained ten days postoperatively. The safety analysis was performed based on the safety data for the entire study, including the 6 week and 12 week follow-up periods. The blind was broken at the time the efficacy analysis was performed. However, the individual treatment assignment was available to the statistical analysis group only. All other personnel involved in the study, including the Investigator, study monitor and proprietary staff, remained blinded until the entire study was completed.
The study was designed to include 40 evaluation subjects. […] Each subject had six (6) study visits: a Screening Day (Day −28 to −1), an Operation Day (Day 0), and four (4) Follow-up visits (scheduled for Days 3, 10 and weeks 6 and 12).
On Operation Day (Day 0) the following was performed: a) Pre-operation: Prior to the initiation of an ankle block, inclusion/exclusion criteria assessment was performed. […] Immediately prior to wound closure, the Investigator slowly dripped the study medication (4 mL) from a syringe into the wound, ensuring even tissue exposure. The wound was then closed according to normal practices and procedures.
In the 24 hours following administration of study medication, vital signs (supine pulse rate and blood pressure) were recorded at 1, 2, 4 and 24 hours post administration. VAS assessment of pain at the operation site was performed at 1, 4, 8, 12 and 24 hours post administration. In those instances where VAS measurements coincide with blood sampling procedures, the VAS assessment was performed first. […] The quantity of each blood sample was 10 mL. Laboratory safety assessments, e.g., haematology, biochemistry, urinalysis were performed at 24 hours post administration. Adverse events were spontaneously reported by the subject and recorded. Rescue analgesia medication was provided to the subject if required (initially diclofenac 50 mg, repeated at 8 hourly intervals if necessary). When diclofenac was judged by the Investigator to provide inadequate pain relief then the subject was provided with alfentanil, 1 mg, repeated at 6 hourly intervals when necessary.

COc1cc(CNC(=O)CCCC/C=C/C(C)C)ccc1O [capsaicin, N-(4-hydroxy-3-methoxybenzyl)-8-methylnon-trans-6-enamide]
effect on radiation induced hyperalgesia ([1]; final doses of 25 mg/kg or less prior to ultra violet radiation): prevented radiation induced hyperalgesia
effect on pain threshold ([1]; final doses of 25 mg/kg or less): did not elevate the pain threshold above normal range
reduction of VAS pain score, prior to drug administration vs day of surgery ([2]; 9 active patients of the 4 day, 7 day and 14 day cohorts, 10, 100 and 300 μg pooled): 62±14%
treatment related indication of efficacy (VAS) ([2]; dose levels 10 μg, 100 μg and 300 μg): No clear treatment related indication of efficacy was seen
duration of post-administration (hyper) algesic pain ([3]; 300 μg dose group, individual subjects): 17 minutes and 25 minutes (2×) and 42 minutes
proprioception at the injected knee ([3]; any dose group, any time point): no discernable effect
average duration of post injection hyperalgesia ([3]; burning sensation, 100 and 300 μg dose groups): less than thirty minutes
erythema, edema or hemorrhage at the site of injection ([3]; in vivo): no treatment related signs
histopathological examination of soft tissue, cartilage and bone ([3]; in vivo): no treatment related effects on soft tissue, cartilage, or bone
laboratory safety parameters and vital signs ([3]; in vivo): no treatment related effects on laboratory safety parameters or vital signs
systemic side effects ([3]; in vivo): No treatment related systemic side effects were seen
leakage of study drug from the joint space ([3]; intra-articular, knee): low leakage
gross and microscopic pathology ([3]; knee tissue at replacement): normal
VAS pain score (Table 4), mean +/− SEM ([4]; 8 hr): 5.5 +/− 2.3
VAS pain score (Table 4), mean +/− SEM ([4]; 12 hr): 8.2 +/− 3.8
VAS pain score (Table 4), mean +/− SEM ([4]; 24 hr): 1.9 +/− 1.0
VAS pain score (Table 4), mean +/− SEM ([4]; 48 hr): 5.9 +/− 2.5
effect on opioid rescue ([4]; 1000 μg prior to wound closure): decreased opioid rescue
time at which a subject required rescue ([4]; 1000 μg prior to wound closure, individual subjects): 1 h and 4 h and 5 h and 8 h and 12 h
